For 22 molecules, IC50 results are on record in patent publication US20260132132A1, “3A,4,5,6-TETRAHYDRO-1 H-PYRAZOLO[3,4-C]PYRIDIN-7(7AH)-ONE DERIVATIVES AS FACTOR XIIA INHIBITORS” (KALVISTA PHARMACEUTICALS LIMITED, priority 2022, published 2026).

Each structure is given as a SMILES string.

In this experiment the target is T1, Human Factor XIIa (hFXIIa) (Homo sapiens, UniProt P00748).
T1 construct: purchased Enzyme Research Laboratories
T1 sequence (P00748 373-615 limits assumed): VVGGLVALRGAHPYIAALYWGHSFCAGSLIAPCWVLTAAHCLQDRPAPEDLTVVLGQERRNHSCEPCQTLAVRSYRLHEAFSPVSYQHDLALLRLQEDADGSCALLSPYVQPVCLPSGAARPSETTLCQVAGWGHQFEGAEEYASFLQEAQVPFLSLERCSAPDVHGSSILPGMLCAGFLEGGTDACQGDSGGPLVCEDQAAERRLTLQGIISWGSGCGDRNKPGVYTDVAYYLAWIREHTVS
T1 sequence (P00748 20-372 partner limits assumed): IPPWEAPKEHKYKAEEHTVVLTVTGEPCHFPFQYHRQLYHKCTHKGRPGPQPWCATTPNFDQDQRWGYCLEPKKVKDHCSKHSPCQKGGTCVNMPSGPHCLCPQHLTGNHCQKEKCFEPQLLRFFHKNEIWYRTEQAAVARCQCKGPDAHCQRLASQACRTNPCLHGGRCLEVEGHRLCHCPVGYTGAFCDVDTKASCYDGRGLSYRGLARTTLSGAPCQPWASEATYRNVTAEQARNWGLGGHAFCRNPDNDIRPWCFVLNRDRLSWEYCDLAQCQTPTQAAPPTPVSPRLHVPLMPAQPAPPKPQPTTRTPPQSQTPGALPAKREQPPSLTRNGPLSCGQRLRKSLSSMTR
The experiment is described as follows: Determination of Human Factor XIIa (hFXIIa) inhibition, fluorogenic substrate IC50 assay. Format: biochemical. The conditions noted are these: fluorogenic substrate H-DPro-Phe-Arg-AFC at Km, 25° C., read-out: Human FXIIa IC50. The procedure:
Determination of Human Factor XIIa (hFXIIa) inhibition
The Km for the cleavage of the substrate by hFXIIa was determined by standard transformation of the Michaelis-Menten equation, with subsequent inhibition assays performed at substrate Km concentration.
In general, IC50 refers to the concentration that gives 50% inhibition. Turning to `CN(C(=O)c1cccc(N2CCc3c(C(=O)NCC4CC4)nn(-c4cccc(Cl)c4)c3C2=O)c1)C1CC1` [Example 1270, 1-(3-chlorophenyl)-6-(3-(cyclopropyl(methyl)carbamoyl)phenyl)-N-(cyclopropylmethyl)-7-oxo-4,5,6,7-tetrahydro-1H-pyrazolo[3,4-c]pyridine-3-carboxamide], the IC50 was 10000 to 40000 nM.
Consider `CN1CCc2ccc(N3CCc4c(C(=O)N5CCOCC5)nn(-c5cccc(Cl)c5)c4C3=O)cc2C1=O` [Example 1272, 7-(1-(3-chlorophenyl)-3-(morpholine-4-carbonyl)-7-oxo-1,4,5,7-tetrahydro-6H-pyrazolo[3,4-c]pyridin-6-yl)-2-methyl-3,4-dihydroisoquinolin-1(2H)-one], for which the IC50 fell in the range of 3000 to 10000 nM.
Consider `CN(C)C(=O)c1ccnc(N2CCc3c(C(=O)NCC4CC4)nn(-c4cccc(Cl)c4)c3C2=O)c1` [Example 1273, 1-(3-chlorophenyl)-N-(cyclopropylmethyl)-6-(4-(dimethylcarbamoyl)pyridin-2-yl)-7-oxo-4,5,6,7-tetrahydro-1H-pyrazolo[3,4-c]pyridine-3-carboxamide], for which the half-inhibitory concentration (IC50) is 3000 to 10000 nM.
For the molecule `CN1CCc2ccc(N3CCc4c(C(=O)NC[C@H]5C[C@H](O)C5)nn(-c5cccc(Cl)c5)c4C3=O)cc2C1=O` [Example 1274, 1-(3-chlorophenyl)-N-(((1r,3r)-3-hydroxycyclobutyl)methyl)-6-(2-methyl-1-oxo-1,2,3,4-tetrahydroisoquinolin-7-yl)-7-oxo-4,5,6,7-tetrahydro-1H-pyrazolo[3,4-c]pyridine-3-carboxamide], the IC50 is 300 to 1000 nM.
`Cc1cc(CNC(=O)c2nn(-c3cccc(Cl)c3)c3c2CCN(c2ccc4c(c2)N(C)C(=O)C4(C)C)C3=O)nn1C` [Example 1276, 1-(3-chlorophenyl)-N-((1,5-dimethyl-1H-pyrazol-3-yl)methyl)-7-oxo-6-(1,3,3-trimethyl-2-oxoindolin-6-yl)-4,5,6,7-tetrahydro-1H-pyrazolo[3,4-c]pyridine-3-carboxamide]: the IC50 lay within 3000 to 10000 nM.
Turning to `CN1C(=O)C(C)(C)c2ccc(N3CCc4c(C(=O)NCC5CC5)nn(-c5cccc(Cl)c5)c4C3=O)cc21` [Example 1277, 1-(3-chlorophenyl)-N-(cyclopropylmethyl)-7-oxo-6-(1,3,3-trimethyl-2-oxoindolin-6-yl)-4,5,6,7-tetrahydro-1H-pyrazolo[3,4-c]pyridine-3-carboxamide], the IC50 lay within 10000 to 40000 nM.
In the case of `CN(C)C(=O)c1cc(N2CCc3c(C(=O)NCC4CC4)nn(-c4cccc(Cl)c4)c3C2=O)ccn1` [Example 1278, 1-(3-chlorophenyl)-N-(cyclopropylmethyl)-6-(2-(dimethylcarbamoyl)pyridin-4-yl)-7-oxo-4,5,6,7-tetrahydro-1H-pyrazolo[3,4-c]pyridine-3-carboxamide], the IC50 was in the range of 3000 to 10000 nM.
As for `CN(C)C(=O)c1cncc(N2CCc3c(C(=O)NCC4CC4)nn(-c4cccc(Cl)c4)c3C2=O)c1` [Example 1279, 1-(3-chlorophenyl)-N-(cyclopropylmethyl)-6-(5-(dimethylcarbamoyl)pyridin-3-yl)-7-oxo-4,5,6,7-tetrahydro-1H-pyrazolo[3,4-c]pyridine-3-carboxamide], the 50% inhibitory concentration (IC50) fell in the range of 10000 to 40000 nM.
With `CN1CCc2ccc(N3CCc4c(C(=O)NCC56CCC(CO)(C5)O6)nn(-c5cccc(Cl)c5)c4C3=O)cc2C1=O` (stereo not shown) [Example 1280, 1-(3-chlorophenyl)-N-((4-(hydroxymethyl)-5-oxabicyclo[2.1.1]hexan-1-yl)methyl)-6-(2-methyl-1-oxo-1,2,3,4-tetrahydroisoquinolin-7-yl)-7-oxo-4,5,6,7-tetrahydro-1H-pyrazolo[3,4-c]pyridine-3-carboxamide], the IC50 fell in the range of 300 to 1000 nM.
`CN(C)C(=O)c1cc(N2CCc3c(C(=O)NCC4CC4)nn(-c4cccc(Cl)c4)c3C2=O)ccc1F` [Example 1281, 1-(3-chlorophenyl)-N-(cyclopropylmethyl)-6-(3-(dimethylcarbamoyl)-4-fluorophenyl)-7-oxo-4,5,6,7-tetrahydro-1H-pyrazolo[3,4-c]pyridine-3-carboxamide]: the IC50 was 3000 to 10000 nM.
Consider `CN1CCc2ccc(N3CCc4c(C(=O)NCC56CC(CO)(CCO5)C6)nn(-c5cccc(Cl)c5)c4C3=O)cc2C1=O` [Example 1283, 1-(3-chlorophenyl)-N-((5-(hydroxymethyl)-2-oxabicyclo[3.1.1]heptan-1-yl)methyl)-6-(2-methyl-1-oxo-1,2,3,4-tetrahydroisoquinolin-7-yl)-7-oxo-4,5,6,7-tetrahydro-1H-pyrazolo[3,4-c]pyridine-3-carboxamide], for which the IC50 was 300 to 1000 nM.
The same measure for `CCOC(=O)c1nn(-c2cccc(Cl)c2)c2c1CCN(c1ccc3c(c1)C(=O)N(C)CC3)C2=O` [Example 1284, ethyl 1-(3-chlorophenyl)-6-(2-methyl-1-oxo-1,2,3,4-tetrahydroisoquinolin-7-yl)-7-oxo-4,5,6,7-tetrahydro-1H-pyrazolo[3,4-c]pyridine-3-carboxylate]: 300 to 1000 nM; for `CCN(CC)C(=O)c1cccc(N2CCc3c(C(=O)NCC4CC4)nn(-c4cccc(Cl)c4)c3C2=O)c1` [Example 1286, 1-(3-chlorophenyl)-N-(cyclopropylmethyl)-6-(3-(diethylcarbamoyl)phenyl)-7-oxo-4,5,6,7-tetrahydro-1H-pyrazolo[3,4-c]pyridine-3-carboxamide]: 10000 to 40000 nM.
Next, `Cc1cc(CNC(=O)c2nn(-c3cccc(Cl)c3)c3c2CCN(c2ccc4c(c2)C(=O)N(CCO)CCO4)C3=O)nn1C` [Example 1288, 1-(3-Chlorophenyl)-N-[(1,5-dimethylpyrazol-3-yl)methyl]-6-[4-(2-hydroxyethyl)-5-oxo-2,3-dihydro-1,4-benzoxazepin-7-yl]-7-oxo-4,5-dihydropyrazolo[3,4-c]pyridine-3-carboxamide]: 10 to 100 nM.
`O=C(NCC1CC1)c1nn(-c2cccc(Cl)c2)c2c1CCN(c1ccc3c(c1)C(=O)N(CCO)CCO3)C2=O` [Example 1289, 1-(3-chlorophenyl)-N-(cyclopropylmethyl)-6-(4-(2-hydroxyethyl)-5-oxo-2,3,4,5-tetrahydrobenzo[f][1,4]oxazepin-7-yl)-7-oxo-4,5,6,7-tetrahydro-1H-pyrazolo[3,4-c]pyridine-3-carboxamide]: the IC50 is 100 to 300 nM.
The same measure for `Cc1cc(CNC(=O)c2nn(-c3cccc(Cl)c3)c3c2CCN(c2ccc4c(c2)C(=O)N(C2COC2)CC4)C3=O)nn1C` [Example 1290, 1-(3-chlorophenyl)-N-((1,5-dimethyl-1H-pyrazol-3-yl)methyl)-6-(2-(oxetan-3-yl)-1-oxo-1,2,3,4-tetrahydroisoquinolin-7-yl)-7-oxo-4,5,6,7-tetrahydro-1H-pyrazolo[3,4-c]pyridine-3-carboxamide]: 100 to 300 nM.
`O=C(NCC1CC1)c1nn(-c2cccc(Cl)c2)c2c1CCN(c1ccc3c(c1)C(=O)N(CC1CCCO1)CC3)C2=O` (stereo not shown) [Example 1292, 1-(3-chlorophenyl)-N-(cyclopropylmethyl)-7-oxo-6-(1-oxo-2-((tetrahydrofuran-2-yl)methyl)-1,2,3,4-tetrahydroisoquinolin-7-yl)-4,5,6,7-tetrahydro-1H-pyrazolo[3,4-c]pyridine-3-carboxamide]: the half-maximal inhibitory concentration (IC50) lay in the range of 300 to 1000 nM.
For the molecule `Cc1cc(CNC(=O)c2nn(-c3cccc(Cl)c3)c3c2CCN(c2ccc4c(c2)C(=O)N(CC2CCCO2)CC4)C3=O)nn1C` (stereo not shown) [Example 1293, 1-(3-chlorophenyl)-N-((1,5-dimethyl-1H-pyrazol-3-yl)methyl)-7-oxo-6-(1-oxo-2-((tetrahydrofuran-2-yl)methyl)-1,2,3,4-tetrahydroisoquinolin-7-yl)-4,5,6,7-tetrahydro-1H-pyrazolo[3,4-c]pyridine-3-carboxamide], the IC50 fell in the range of 100 to 300 nM.
Regarding `O=C(NCC1CC1)c1nn(-c2cccc(Cl)c2)c2c1CCN(c1ccc3c(c1)C(=O)N(CCO)CCC3)C2=O` [Example 1294, 1-(3-chlorophenyl)-N-(cyclopropylmethyl)-6-(2-(2-hydroxyethyl)-1-oxo-2,3,4,5-tetrahydro-1H-benzo[c]azepin-8-yl)-7-oxo-4,5,6,7-tetrahydro-1H-pyrazolo[3,4-c]pyridine-3-carboxamide], the concentration for half-maximal inhibition (IC50) fell in the range of 100 to 300 nM.
Take `CN(C)C(=O)c1csc(N2CCc3c(C(=O)NCC4CC4)nn(-c4cccc(Cl)c4)c3C2=O)c1` [Example 1295, 1-(3-chlorophenyl)-N-(cyclopropylmethyl)-6-(4-(dimethylcarbamoyl)thiophen-2-yl)-7-oxo-4,5,6,7-tetrahydro-1H-pyrazolo[3,4-c]pyridine-3-carboxamide]: the 50% inhibitory concentration (IC50) was in the range of 10000 to 40000 nM.
In the case of `CC(C)n1ccc(CNC(=O)c2nn(-c3cccc(Cl)c3)c3c2CCN(c2ccc4c(c2)C(=O)N(C)CC4)C3=O)n1` [Example 1296, 1-(3-chlorophenyl)-N-((1-isopropyl-1H-pyrazol-3-yl)methyl)-6-(2-methyl-1-oxo-1,2,3,4-tetrahydroisoquinolin-7-yl)-7-oxo-4,5,6,7-tetrahydro-1H-pyrazolo[3,4-c]pyridine-3-carboxamide], the half-maximal inhibitory concentration (IC50) is 100 to 300 nM.
Next, `CCNC(=O)c1nn(-c2cccc(Cl)c2)c2c1CCN(c1ccc3c(c1)C(=O)N(C)CC3)C2=O` [Example 1297, 1-(3-chlorophenyl)-N-ethyl-6-(2-methyl-1-oxo-1,2,3,4-tetrahydroisoquinolin-7-yl)-7-oxo-4,5,6,7-tetrahydro-1H-pyrazolo[3,4-c]pyridine-3-carboxamide]: 300 to 1000 nM.
